# Assay results as given in patent US7744867B2, “PTPase inhibitors and method of using same” (The Cleveland Clinic Foundation, priority 2001, dated 2010).
# Key:
# WM9 cells = assay: Apoptotic cells by Annexin V/propidium iodide assay (fluorescent microscopy); assay type: cell-based, human; conditions: 3 days, control 5%
# Protocol: Detection of apoptotic cells by Annexin V/propidium iodide assay. Annexin V staining of exposed membrane phospholipid phosphatidylserine (PS) was done using the Annexin V assay kit (Pharmingen, San Diego, Calif.). Briefly, U266 or WM9 cells were cultured in the 10% FCS RPMI 1640 medium in the absence or presence of sodium stibogluconate, IFNα, or both for 3 days. Cells were then washed in PBS twice and stained in binding buffer (10 mM Hepes, pH 7.4; 140 mM NaCl; 2.5 mM CaCl2) containing Annexin V-FITC and propidium iodide for 15 min. The reaction was stopped by adding 10 volumes of binding buffer and analyzed by FACS (Becton Dickinson Facsvantage) or fluorescent microscopy.
# Peer cells (T-ALL) = assay: Growth inhibition of human tumor cell lines; assay type: cell-based; conditions: SS 12.5 μg/ml, IFNα 1,000 u/ml, alone or combined
# TF-1 cells = assay: Proliferation of TF-1 cells with GM-CSF and IFNα (MTT); assay type: cell-based, human; conditions: at 50 μg/ml; GM-CSF 5-40 ng/ml
# Protocol: FIG. 7 illustrates that sodium stibogluconate augments the opposite effects of GM-CSF and IFNα on TF-1 cell growth: A. Proliferation of TF-1 cells cultured in the presence of various amounts of GM-CSF and with or without sodium stibogluconate for three days was measured by MTT assays; B. Proliferation of TF-1 cells cultured in the presence of GM-CSF (50 ng/ml) and various amounts of IFNα with or without sodium stibogluconate (50 μg/ml) for three days was measured by MTT assays; C. The results in B shown as percentage inhibition of cell growth; D. Proliferation of TF-1 cells in the presence of GM-CSF (20 ng/ml) and various amounts of sodium stibogluconate for 6 days was measured by MTT assays; E. Proliferation of TF-1 cells in the presence of GM-CSF (20 ng/ml)/IFNα (1,000 u/ml) and various amounts of sodium stibogluconate for 6 days was measured by MTT assays.
# The murine hematopoietic cell line Baf3 was maintained in RPMI 1640 medium supplemented with 10% fetal calf serum (FCS) and murine IL-3 (20 units/ml) as described previously. Human myeloid cell line TF-1 was maintained in RPMI 1640 supplemented with 10% FCS and 40 ng/ml of recombinant human GM-CSF as described previously. […] The cell numbers in proliferation assays were determined by an MTT assay or by microscopic cell counting as indicated.
# [1] = molecular target: T1, intracellular MKP1 in WM9 cells (Homo sapiens, UniProt P28562); assay: PTPase activity of anti-MKP1 immunocomplexes from WM9 cells; assay type: cell-based; conditions: treated 5 minutes
# T1 construct: endogenous in cells; host or cells: WM9 human melanoma cells
# Protocol: FIG. 6C. Sodium stibogluconate inactivates intracellular PRL-2 in WM9 human melanoma cells. A. Relative PTPase activities of anti-Flag immunocomplexes from WM9 cells transfected with the control vector (V) or Flag-PRL-2 expression construct and then treated with different amounts of sodium stibogluconate for 5 minutes B. Relative amounts of Flag-PRL-2 in the immunocomplexes as determined by SDS-PAGE/Western blotting. C. Relative PTPase activities of anti-MKP1 immunocomplexes from WM9 cells treated with different amounts of sodium stibogluconate for 5 minutes. Relative amounts of MKP1 in the immunocomplexes as determined by SDS-PAGE/Western blotting.
# Flag-PRL-2 protein was detected in anti-Flag immunocomplexes from WM9 cells tranfected with an expression construct of Flag-PRL-2 but not in those from vector transfectants expected.
# Leishmaniasis = conditions: cited from earlier work
# recombinant PRL-3 = molecular target: T2, recombinant PRL-3 (Homo sapiens, UniProt O75365); assay: In vitro PTPase assay with recombinant PRL (peptide or DiFMUP substrate); assay type: biochemical
# T2 construct: made in house; host or cells: E. coli DH5α
# Protocol: In vitro PTPase activities were measured using the commercial protein tyrosine phosphatase assay kit (UBI) following established procedure. […] 100 μl of Malachite Green solution was added and incubated for 5 minutes, and the absorbance at 660 nm was measured after 5 minutes.
# Recombinant GST fusion proteins of human PRL-1, 2 and 3 phosphatases were purified with glutathione beads from DH5α bacteria transformed by pGEX vectors containing cDNA fragments encoding the human PRLs which were generated by RT-PCR from H9 cells and confirmed by sequence analysis. Activities of the purified recombinant PRL proteins in dephosphorylating DiFMUP in the absence or presence of various inhibitors were measured following established procedure.
# To assess whether sodium stibogluconate is an inhibitor of oncogenic PRL phosphatases, its effects on the PTPase activity of recombinant PRLs were evaluated by in vitro PTPase assays.
# NB4 cells = assay: Differentiation, proliferation and cell cycle of AML cell line; assay type: cell-based, human
# Protocol: Cell lines, cell culture, and cell proliferation assay. The NB4 cell line was a gift from Dr. Dan Lindner of CCF. HL60 and U937 cell lines were purchased from ATCC. These human AML cell lines were maintained in RPMI 1640 medium supplemented with 10% fetal calf serum (FCS). For cell proliferation assays, cells were cultured at 37° C. in 10% FCS medium containing various amounts of sodium stibogluconate for 6 days. The cell numbers in the cultures were determined by an MTT assay as described previously.
# Differentiation of AML cell lines was assessed by their ability to produce superoxide as measured by reduction of NBT to formazan and by analysis of expression of CD11b surface marker by flow cytometry. For NBT reduction, each cell suspension was mixed with an equal volume of solution containing 1 mg/ml of NBT (Sigma) and 2.5 μg/ml of TPA for 30 minutes at 37° C. After incubation, cells containing the purple formazan deposits and cells devoid of NBT-reducing activity (white cells) in each sample were determined by counting 200 cells under microscope. We expressed the data as percentage of the following ratio: purple cells/purple+white cells. For analysis of cell surface antigens, cells were exposed to phycoerythrin (PE)−conjugated murine anti-human CD11b (DAKO corp, Carpinteria, Calif.). Analysis of fluorescence was performed on a FACScan flow cytometer (Beckton Dickinson, Mountain View, Calif.). The cell cycle was analyzed by flow cytometry after 3 days of culture of NB4 cells in the absence or presence of sodium stibogluconate (250 μg/ml) or ATRA (1 μM). Briefly, the cells were fixed in cold ethanol and incubated for 30 minutes at 4° C. in the dark with a solution of […] propidium iodide, 1 mg/ml RNase and 0.1% NP-40. Analysis was performed immediately after staining using the CELLFIT program (Becton Dickinson, Mountain View, Calif.).
# T2 sequence (O75365 whole entry): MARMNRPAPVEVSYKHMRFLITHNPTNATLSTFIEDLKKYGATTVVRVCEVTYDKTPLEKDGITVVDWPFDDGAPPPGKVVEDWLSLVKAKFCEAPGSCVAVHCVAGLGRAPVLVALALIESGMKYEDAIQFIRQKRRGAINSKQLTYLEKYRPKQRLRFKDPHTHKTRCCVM
# T1 sequence (P28562 whole entry): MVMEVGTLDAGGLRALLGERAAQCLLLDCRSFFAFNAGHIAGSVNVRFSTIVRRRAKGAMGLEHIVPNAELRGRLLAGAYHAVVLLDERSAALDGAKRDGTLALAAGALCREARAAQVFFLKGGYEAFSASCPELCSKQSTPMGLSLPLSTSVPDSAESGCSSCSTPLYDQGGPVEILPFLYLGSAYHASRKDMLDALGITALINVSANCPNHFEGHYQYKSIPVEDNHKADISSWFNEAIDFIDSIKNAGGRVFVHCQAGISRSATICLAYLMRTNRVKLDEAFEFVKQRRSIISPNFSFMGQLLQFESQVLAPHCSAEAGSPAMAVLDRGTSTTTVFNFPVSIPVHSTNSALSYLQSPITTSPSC
Compound,percentage of apoptotic cells (WM9 cells),% of growth inhibition by day 6 (±s.d.) (Peer cells (T-ALL)),GM-CSF-induced proliferation of TF-1 cells (TF-1 cells),effect on MKP1 PTPase activity in WM9 cells [1],efficacy in Leishmaniasis (Leishmaniasis; 20 mg Sb/kg body weight per day i.m. daily for 10-14 days),"known toxicity profile (Leishmaniasis; human, in vivo)","single dose used without serious toxicity (Leishmaniasis; human, in vivo)","inhibition of PRL-3 after prolonged pre-incubation (recombinant PRL-3; pre-incubation 30 or 60 minutes, 10 mg/ml)",reversibility of PRL-3 inactivation (recombinant PRL-3; washing process),"proliferation of NB4 cells (NB4 cells; 12.5-400 μg/ml, 6 days)","cell cycle arrest (DNA content analysis) (NB4 cells; 3 days, sodium stibogluconate 250 μg/ml, ATRA 1 μM)",expression levels of PML/RARα chimeric protein (NB4 cells; NB4 cells),NB4 cell differentiation (NBT positive cells) (NB4 cells; dose- and time-dependent)
IFNα,15%,86 (4) %,,,,,,,,,,,
O.O.O.O.O.O.O.O.O.O=C([O-])[C@@H]1[O][Sb]2([O-])([O][Sb]34([OH])[O][C@H]([C@H](O)CO)[C@H]([O]3)[C@H](C(=O)[O-])[O]4)[O][C@H]([C@H](O)CO)[C@@H]1[O]2.[Na+].[Na+].[Na+] [sodium stibogluconate],,,augmented,no marked effects,70-100%,modest cardiac toxicity and leukopenia,up to 143 mg Sb/kg,nearly complete inactivation,not relieved,markedly inhibited,growth arrest at S phase,no detectable effect,induced
